{
  "source": "patent US20190282640A1",
  "about": "(priority 2016, published 2019)",
  "target": "C5 (Homo sapiens, UniProt P01031)",
  "sequence (P01031 678-1676)": "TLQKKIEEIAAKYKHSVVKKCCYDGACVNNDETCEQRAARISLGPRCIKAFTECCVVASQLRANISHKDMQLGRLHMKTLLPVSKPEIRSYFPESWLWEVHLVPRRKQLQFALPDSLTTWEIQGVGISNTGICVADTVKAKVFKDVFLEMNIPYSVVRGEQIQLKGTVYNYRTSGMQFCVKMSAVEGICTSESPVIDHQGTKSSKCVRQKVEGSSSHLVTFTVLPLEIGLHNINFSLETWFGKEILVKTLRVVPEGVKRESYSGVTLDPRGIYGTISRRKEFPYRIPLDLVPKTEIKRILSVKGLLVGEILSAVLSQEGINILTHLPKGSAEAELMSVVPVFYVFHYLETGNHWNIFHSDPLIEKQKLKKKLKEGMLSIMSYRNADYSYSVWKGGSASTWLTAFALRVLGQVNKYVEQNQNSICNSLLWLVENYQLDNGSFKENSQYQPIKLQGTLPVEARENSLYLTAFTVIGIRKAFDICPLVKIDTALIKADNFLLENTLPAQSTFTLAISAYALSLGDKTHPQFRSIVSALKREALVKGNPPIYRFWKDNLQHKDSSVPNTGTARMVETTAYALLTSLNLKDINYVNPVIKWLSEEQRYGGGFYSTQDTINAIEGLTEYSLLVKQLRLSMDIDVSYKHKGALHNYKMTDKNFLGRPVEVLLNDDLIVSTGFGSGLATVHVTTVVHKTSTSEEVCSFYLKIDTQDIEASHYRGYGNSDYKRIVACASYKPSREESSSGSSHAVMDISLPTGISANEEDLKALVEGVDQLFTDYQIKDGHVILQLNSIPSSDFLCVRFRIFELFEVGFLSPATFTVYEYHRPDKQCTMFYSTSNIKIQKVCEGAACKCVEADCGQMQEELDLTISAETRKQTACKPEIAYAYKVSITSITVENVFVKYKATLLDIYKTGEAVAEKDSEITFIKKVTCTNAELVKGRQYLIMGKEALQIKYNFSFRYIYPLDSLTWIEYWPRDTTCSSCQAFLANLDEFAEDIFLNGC",
  "sequence (P01031 19-673)": "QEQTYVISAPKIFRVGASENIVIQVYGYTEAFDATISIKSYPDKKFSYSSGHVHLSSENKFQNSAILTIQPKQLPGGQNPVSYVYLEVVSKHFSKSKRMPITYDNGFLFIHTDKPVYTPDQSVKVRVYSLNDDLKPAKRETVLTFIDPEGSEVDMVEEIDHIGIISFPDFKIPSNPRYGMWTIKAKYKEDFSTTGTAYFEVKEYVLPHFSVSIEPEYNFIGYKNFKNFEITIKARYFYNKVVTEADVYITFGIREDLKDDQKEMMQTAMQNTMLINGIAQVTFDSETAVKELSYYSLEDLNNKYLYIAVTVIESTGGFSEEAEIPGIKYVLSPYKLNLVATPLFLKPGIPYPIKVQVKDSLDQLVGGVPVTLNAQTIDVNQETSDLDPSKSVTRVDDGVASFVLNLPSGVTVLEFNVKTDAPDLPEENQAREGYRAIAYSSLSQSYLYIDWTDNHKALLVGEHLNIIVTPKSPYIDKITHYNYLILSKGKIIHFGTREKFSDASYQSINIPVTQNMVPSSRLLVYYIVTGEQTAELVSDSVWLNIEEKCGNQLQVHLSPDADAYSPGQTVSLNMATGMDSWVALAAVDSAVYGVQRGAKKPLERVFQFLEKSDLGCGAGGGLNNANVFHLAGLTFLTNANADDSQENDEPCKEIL",
  "type": "cell-based",
  "data": [
    {"substance": "Eculizumab", "values": [
      {"measurement": "effect of C5 inhibition on MRB LCMV G neutralization", "result": "able to prevent viral neutralization"}
    ]}
  ]
}
